The target of experiment [1] is T1, CCK Receptor (Pancreas) (Rattus norvegicus, UniProt P30551).
T1 construct: The whole pancreas was dissected free of fat tissue and was homogenized; from tissue; host or cells: rat whole pancreas homogenate/membranes
T1 sequence (P30551 1-444): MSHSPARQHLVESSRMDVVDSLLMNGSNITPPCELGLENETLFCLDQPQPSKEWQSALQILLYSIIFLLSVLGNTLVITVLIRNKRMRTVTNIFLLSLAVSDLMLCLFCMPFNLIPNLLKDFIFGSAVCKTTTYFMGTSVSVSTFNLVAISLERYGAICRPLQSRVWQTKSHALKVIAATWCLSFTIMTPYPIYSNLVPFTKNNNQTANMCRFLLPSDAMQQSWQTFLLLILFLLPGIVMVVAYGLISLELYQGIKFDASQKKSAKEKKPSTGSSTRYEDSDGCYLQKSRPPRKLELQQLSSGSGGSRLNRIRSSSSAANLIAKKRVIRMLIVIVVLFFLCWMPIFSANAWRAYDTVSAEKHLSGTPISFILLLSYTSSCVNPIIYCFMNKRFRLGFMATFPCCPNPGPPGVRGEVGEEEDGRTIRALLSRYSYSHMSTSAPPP
The experiment can be described thus: CCK Receptor Binding (Pancreas): inhibition of 125I-CCK-8 binding to rat pancreas membranes. Also on record: species or system rat (male Sprague-Dawley). As to conditions: 50 pM 125I-CCK-8, 25° C., 2 hours, pH 6.5. The procedure:
1. CCK Receptor Binding (Pancreas)
CCK-8 sulphated was radiolabelled with ^125 I-Bolton Hunter reagent (2000 Ci/mmole). Receptor binding was performed according to Chang and Lotti (Proc. Natl. Acad. Sci. 83, 4923-4926, 1986) with minor modifications.
Male Sprague-Dawley rats (150-200 g) were sacrificed by decapitation. The whole pancreas was dissected free of fat tissue and was homogenized in 25 volumes of ice-cold 10 mM N-2-hydroxyethyl-piperazine-N'-2-ethane sulphonic acid (HEPES) buffer with 0.1% soya bean trypsin inhibitor (pH 7.4 at 25° C.) with a Kinematica Polytron. The homogenates were centrifuged at 47,800 g for 10 min. Pellets were resuspended in 10 volumes of binding assay buffer (20mM (HEPES)), 1 mM ethylene glycol-bis-(β-aminoethylether-N,N'-tetraacetic acid) (EGTA), 5 mM MgCl2, 150 mM NaCl, bacitracin 0.25 mg/ml, soya bean trypsin inhibitor 0.1 mg/ml, and bovine serum albumin 2 mg/ml pH 6.5 at 25° C.) using a Teflon (trademark) homogenizer, 15 strokes at 500 rpm. The homogenate was further diluted in binding assay buffer to give a final concentration of 0.5 mg original wet weight/1 ml buffer. […] The radioactivity on the filters was counted with a LKB gamma counter. […]

Experiment [2] addresses T2, CCK Receptor (Brain) (Cavia porcellus, UniProt H0VZC5).
T2 construct: the cortex was removed and homogenized in 25 mL ice-cold 0.32 M sucrose; from tissue; host or cells: guinea pig cerebral cortex P2 membranes
T2 sequence (H0VZC5 1-426): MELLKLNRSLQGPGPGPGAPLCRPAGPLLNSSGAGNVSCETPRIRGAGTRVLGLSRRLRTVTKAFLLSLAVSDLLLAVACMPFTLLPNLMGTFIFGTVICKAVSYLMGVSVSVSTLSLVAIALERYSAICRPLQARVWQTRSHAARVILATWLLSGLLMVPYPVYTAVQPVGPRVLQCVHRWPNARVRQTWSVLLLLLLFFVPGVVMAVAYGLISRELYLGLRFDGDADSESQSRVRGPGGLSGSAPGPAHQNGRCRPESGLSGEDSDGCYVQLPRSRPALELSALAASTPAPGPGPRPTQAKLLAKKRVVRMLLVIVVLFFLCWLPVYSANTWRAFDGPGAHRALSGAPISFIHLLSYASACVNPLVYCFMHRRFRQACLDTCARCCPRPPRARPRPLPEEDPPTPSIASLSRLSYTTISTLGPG
The experiment can be described thus: CCK Receptor Binding (Brain): inhibition of 125I-CCK-8 binding to guinea pig cortex membranes. Also on record: species or system guinea pig (male Hartley). As to conditions: 50 pM 125I-CCK-8, 25° C., 2 hours, pH 6.5. The procedure: 2. CCK Receptor Binding (Brain)
CCK-8 sulphated was radiolabelled and the binding was performed according to the description for the pancreas method with minor modifications.
Male Hartley guinea pigs (300-500 g) were sacrificed by decapitation and the cortex was removed and homogenized in 25 mL ice-cold 0.32 M sucrose. The homogenates were centrifuged at 1000 g for 10 minutes and the resulting supernatant was recentrifuged at 20,000 g for 20 minutes. The P2 pellet was resuspended in binding assay buffer (20 mM HEPES, 5 mM MgCl2, 0.25 mg/ml bacitracin, 1 mM EGTA pH 6.5 at 25° C.), using a Teflon (trademark) homogenizer (5 strokes at 500 rpm) to give a final concentration of 10 mg original wet weight /1.2 ml buffer. For the binding assay, 50 μl of buffer (for total binding) or unlabelled CCK-8 sulphated to give a final concentration of 1 μM (for nonspecific binding) or the compounds of Formula I (for determination of inhibition of ^125 I-CCK-8 binding) and 50 μl of 500 pM ^125 I-CCK-8 (i.e. final concentration of 50 pM) were added to 400 μl of the membrane suspensions in microfuge tubes. All assays were run in duplicate. […] The radioactivity on the filters was counted with a LKB gamma counter. […]

As a reminder, the IC50 is the point on the concentration scale where inhibition reaches its midpoint. Low values mean higher potency, high ones lower potency. Regarding `CN1C(=O)C(NC(=O)Nc2cccc(-c3noc(=O)[nH]3)c2)N=C(C2CCC2)c2ccccc21` (racemic) [Example 2, N-[3(R,S)-5-Cyclobutyl-2,3-dihydro-1-methyl-2-oxo-1H-1,4-benzodiazepin-3-yl]N'-[3-(5-oxo-4H-1,2,4-oxadiazolin-3-yl)phenyl]urea], the IC50 in experiment [1] amounted to 110 nM; in experiment [2] it was 5.98 nM.

As to `CN1C(=O)[C@H](NC(=O)Nc2cccc(-c3noc(=O)[nH]3)c2)N=C(C2CCCCC2)c2ccccc21` [Example 1, N-[3(R)-5-Cyclohexyl-2,3-dihydro-1-methyl-2-oxo-1H-1,4-benzodiazepin-3-yl]N'-[3-(5-oxo-4H-1,2,4-oxadiazolin,3-yl)phenyl]urea], the IC50 was 500 nM in experiment [1] and 0.123 nM in experiment [2].

The values are drawn from patent US5597915A, “Benzodiazepine derivatives, compositions containing them and their use in therapy” (Merck Sharp & Dohme Ltd., priority 1992, dated 1997).
